# Measured values as given in patent US20250236608A1, “EGFR INHIBITORS” (Blueprint Medicines Corporation, priority 2022, published 2025).
# What was measured:
# [1] = molecular target: pEGFR (Tyr1068) in PC-9 cells (Ex19Del) (Homo sapiens (Human), UniProt P00533, DEL746-750); test: PC-9 pEGFR AlphaLISA assay; type: cell-based; conditions: 4 hours incubation, p-EGFR (Tyr1068) AlphaLISA, read-out: Ext pEGFR_PC-9 Ex19Del IC50
# In short: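 First, cells settled overnight in 10% FBS medium. Second, a 10-point, 4-fold series of test agents was applied for 4 h at 37° C. Third, lysates were probed with AlphaLISA acceptor and donor beads, incubated overnight in the dark. Last, IC50 was taken from the dose-response.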
# EGFR L858R = EGFR L858R (Homo sapiens (Human), UniProt P00533, L858R); test: Biochemical EGFR inhibition assay, EGFR L858R; conditions: Caliper mobility shift; 1.0 mM ATP or ATP Km; read-out: Enz EGFR_L858R IC50
# EGFR (d746-750) = EGFR (d746-750) (Homo sapiens (Human), UniProt P00533, DEL746-750); test: Biochemical EGFR inhibition assay, EGFR (d746-750); conditions: Caliper mobility shift; 1.0 mM ATP or ATP Km; read-out: Enz EGFR_Exon19-del746-750 IC50
# Chain of EGFR (d746-750) (P00533 other isoform, or with tags, fused parts or gaps del 1-694/del 746-750 limits assumed): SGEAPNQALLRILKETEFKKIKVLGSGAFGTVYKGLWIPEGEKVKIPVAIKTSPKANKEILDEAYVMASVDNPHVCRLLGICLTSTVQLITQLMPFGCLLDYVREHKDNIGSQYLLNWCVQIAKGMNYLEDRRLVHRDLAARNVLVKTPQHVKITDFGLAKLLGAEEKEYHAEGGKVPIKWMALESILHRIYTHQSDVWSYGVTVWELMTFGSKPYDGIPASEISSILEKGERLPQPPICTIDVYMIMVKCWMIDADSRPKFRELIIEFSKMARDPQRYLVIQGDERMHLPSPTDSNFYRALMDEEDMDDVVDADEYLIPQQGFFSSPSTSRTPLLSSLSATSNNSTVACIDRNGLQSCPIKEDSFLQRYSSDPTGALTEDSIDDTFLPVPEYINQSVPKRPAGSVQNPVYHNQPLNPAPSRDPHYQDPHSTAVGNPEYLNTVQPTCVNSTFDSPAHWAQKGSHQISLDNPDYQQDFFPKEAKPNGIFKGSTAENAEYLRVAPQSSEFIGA
# Chain of pEGFR (Tyr1068) in PC-9 cells (Ex19Del) (P00533 other isoform, or with tags, fused parts or gaps del 746-750): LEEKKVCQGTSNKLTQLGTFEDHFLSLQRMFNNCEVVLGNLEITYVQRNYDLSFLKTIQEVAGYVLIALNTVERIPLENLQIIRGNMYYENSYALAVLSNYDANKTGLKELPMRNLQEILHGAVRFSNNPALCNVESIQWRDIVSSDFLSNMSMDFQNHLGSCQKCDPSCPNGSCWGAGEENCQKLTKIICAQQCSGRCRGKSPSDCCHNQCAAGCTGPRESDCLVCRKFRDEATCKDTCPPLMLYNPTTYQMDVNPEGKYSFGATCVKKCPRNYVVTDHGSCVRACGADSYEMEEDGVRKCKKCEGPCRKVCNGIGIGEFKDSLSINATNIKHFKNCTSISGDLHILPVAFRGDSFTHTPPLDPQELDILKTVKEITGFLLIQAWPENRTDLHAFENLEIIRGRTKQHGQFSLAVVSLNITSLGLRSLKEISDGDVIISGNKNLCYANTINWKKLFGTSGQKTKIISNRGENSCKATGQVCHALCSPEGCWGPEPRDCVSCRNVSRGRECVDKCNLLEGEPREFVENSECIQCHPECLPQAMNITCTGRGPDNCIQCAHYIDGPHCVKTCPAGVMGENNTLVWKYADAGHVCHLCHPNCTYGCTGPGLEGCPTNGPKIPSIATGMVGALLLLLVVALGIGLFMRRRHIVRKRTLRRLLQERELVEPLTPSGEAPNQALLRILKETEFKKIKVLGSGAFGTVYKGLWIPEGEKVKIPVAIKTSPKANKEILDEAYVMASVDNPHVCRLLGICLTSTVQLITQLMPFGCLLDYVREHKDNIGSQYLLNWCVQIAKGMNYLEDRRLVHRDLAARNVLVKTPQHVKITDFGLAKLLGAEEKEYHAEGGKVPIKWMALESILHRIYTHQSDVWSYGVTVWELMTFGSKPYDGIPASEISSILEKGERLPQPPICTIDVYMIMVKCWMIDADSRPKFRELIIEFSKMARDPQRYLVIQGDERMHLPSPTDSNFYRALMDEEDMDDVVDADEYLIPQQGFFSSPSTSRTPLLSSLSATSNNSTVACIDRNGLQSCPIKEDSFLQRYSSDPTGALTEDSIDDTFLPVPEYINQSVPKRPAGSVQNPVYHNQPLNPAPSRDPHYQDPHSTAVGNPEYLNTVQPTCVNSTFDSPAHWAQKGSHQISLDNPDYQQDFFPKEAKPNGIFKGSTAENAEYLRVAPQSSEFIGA
# Chain of EGFR L858R (P00533 25-1210 L858R): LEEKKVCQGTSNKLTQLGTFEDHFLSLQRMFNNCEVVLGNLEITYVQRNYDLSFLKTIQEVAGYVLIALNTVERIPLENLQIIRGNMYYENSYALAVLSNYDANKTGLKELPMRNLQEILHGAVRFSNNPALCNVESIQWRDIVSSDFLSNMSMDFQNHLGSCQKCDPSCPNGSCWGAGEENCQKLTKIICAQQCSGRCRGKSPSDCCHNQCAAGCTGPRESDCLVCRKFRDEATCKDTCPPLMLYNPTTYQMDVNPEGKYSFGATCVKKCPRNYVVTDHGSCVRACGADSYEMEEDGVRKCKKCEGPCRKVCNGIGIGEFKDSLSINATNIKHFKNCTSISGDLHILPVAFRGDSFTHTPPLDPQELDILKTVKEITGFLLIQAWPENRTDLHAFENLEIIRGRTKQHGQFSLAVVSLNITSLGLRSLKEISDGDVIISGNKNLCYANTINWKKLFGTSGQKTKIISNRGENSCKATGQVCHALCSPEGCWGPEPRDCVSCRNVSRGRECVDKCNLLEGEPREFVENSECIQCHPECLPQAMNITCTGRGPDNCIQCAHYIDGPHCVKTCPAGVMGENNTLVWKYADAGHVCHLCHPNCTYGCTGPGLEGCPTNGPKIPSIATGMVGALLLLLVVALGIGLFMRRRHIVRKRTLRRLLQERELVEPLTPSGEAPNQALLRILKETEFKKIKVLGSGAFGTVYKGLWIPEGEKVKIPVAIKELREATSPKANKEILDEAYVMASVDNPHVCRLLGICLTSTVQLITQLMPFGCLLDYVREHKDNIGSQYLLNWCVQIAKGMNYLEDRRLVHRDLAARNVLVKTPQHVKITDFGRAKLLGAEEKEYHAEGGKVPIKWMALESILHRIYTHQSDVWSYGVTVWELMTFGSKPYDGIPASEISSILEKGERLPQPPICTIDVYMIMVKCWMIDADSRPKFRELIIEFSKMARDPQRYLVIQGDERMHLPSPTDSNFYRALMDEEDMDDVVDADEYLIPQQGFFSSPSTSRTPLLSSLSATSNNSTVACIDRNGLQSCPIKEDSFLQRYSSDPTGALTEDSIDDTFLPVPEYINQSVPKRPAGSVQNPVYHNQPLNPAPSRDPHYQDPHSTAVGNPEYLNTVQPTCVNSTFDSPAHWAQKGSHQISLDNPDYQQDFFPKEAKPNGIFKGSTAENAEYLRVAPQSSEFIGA
SMILES,IC50 [1],IC50 (EGFR L858R),IC50 (EGFR (d746-750))
"CCOc1cc2ncnc(-c3cn(C)nc3-c3ccccc3F)c2nc1NC(=O)[C@]12C[C@H]1CN(C)C2 (single isomer, unassigned) [Example 401, (1R,5R)—N-(7-ethoxy-4-(3-(2-fluorophenyl)-1-methyl-1H-pyrazol-4-yl)pyrido[3,2-d]pyrimidin-6-yl)-3-methyl-3-azabicyclo[3.1.0]hexane-1-carboxamide or (1S,5S)—N-(7-ethoxy-4-(3-(2-fluorophenyl)-1-methyl-1H-pyrazol-4-yl)pyrido[3,2-d]pyrimidin-6-yl)-3-methyl-3-azabicyclo[3.1.0]hexane-1-carboxamide]",2.3 nM,53 nM,1.2 nM
"COc1cc2ncnc(-c3cn(C)nc3-c3ccccc3)c2cc1NC(=O)c1ccncc1 [Example 351, N-(7-methoxy-4-(1-methyl-3-phenyl-1H-pyrazol-4-yl)quinazolin-6-yl)isonicotinamide]",4.6 nM,3.1 nM,1.7 nM
"CCOc1cc2ncnc(-c3cn(C4CC4)nc3-c3ccccc3)c2cc1CO [Example 135, (4-(1-cyclopropyl-3-phenyl-1H-pyrazol-4-yl)-7-ethoxyquinazolin-6-yl)methanol]",3.1 nM,1.2 nM,0.7 nM
"CC(C)Oc1cc2ncnc(-c3cn(C)nc3-c3ccccc3)c2cc1OC(C)C [Example 26, 6,7-diisopropoxy-4-(1-methyl-3-phenyl-1H-pyrazol-4-yl)quinazoline]",8 nM,2.9 nM,1.6 nM
"COc1cc2ncnc(-c3cn(CC(F)F)nc3-c3ccccc3)c2cc1OC [Example 15, 4-(1-(2,2-difluoroethyl)-3-phenyl-1H-pyrazol-4-yl)-6,7-dimethoxyquinazoline]",1.5 nM,1.5 nM,0.8 nM
"Cn1cc(-c2cc(F)c3c(-c4cn(C)nc4-c4ccccc4)ncnc3c2)cn1 [Example 439, 5-fluoro-7-(1-methyl-1H-pyrazol-4-yl)-4-(1-methyl-3-phenyl-1H-pyrazol-4-yl)quinazoline]",1.7 nM,0.7 nM,0.4 nM
"COc1cc2ncnc(-c3cn(C)nc3-c3ccccc3)c2cc1O[C@@H](C)C1COC1 [Example 22, (S)-7-methoxy-4-(1-methyl-3-phenyl-1H-pyrazol-4-yl)-6-(1-(oxetan-3-yl)ethoxy)quinazoline]",4.8 nM,1.7 nM,1.2 nM
"COc1cc2ncnc(-c3cn(C)nc3-c3ccccc3)c2cc1C(C)O (stereo not drawn) [Example 100, 1-(7-methoxy-4-(1-methyl-3-phenyl-1H-pyrazol-4-yl)quinazolin-6-yl)ethan-1-ol]",7.6 nM,2.9 nM,2 nM
"CCC(=O)Nc1cc2c(-c3cn(CC(F)F)nc3-c3ccccc3)ncnc2cc1OC [Example 250, N-(4-(1-(2,2-difluoroethyl)-3-phenyl-1H-pyrazol-4-yl)-7-methoxyquinazolin-6-yl)propionamide]",0.9 nM,1.4 nM,1 nM
"COc1cc2ncnc(-c3cn(CC(F)F)nc3-c3ccccc3)c2cc1NC(=O)c1ccc(C2CC2)nc1 [Example 333, 6-cyclopropyl-N-(4-(1-(2,2-difluoroethyl)-3-phenyl-1H-pyrazol-4-yl)-7-methoxyquinazolin-6-yl) nicotinamide]",1.7 nM,1.3 nM,0.8 nM
"CCOc1cc2ncnc(-c3cn(CC(F)F)nc3-c3ccccc3)c2cc1CO [Example 123, (4-(1-(2,2-difluoroethyl)-3-phenyl-1H-pyrazol-4-yl)-7-ethoxyquinazolin-6-yl)methanol]",3 nM,1.6 nM,1 nM
"COc1cc2ncnc(-c3cn(CC4CC4)nc3-c3ccccc3)c2nc1NC(=O)[C@@]12C[C@@H]1CN(C)C2 (single isomer, unassigned) [Example 408, (1R,5R)—N-(4-(1-(cyclopropylmethyl)-3-phenyl-1H-pyrazol-4-yl)-7-methoxypyrido[3,2-d]pyrimidin-6-yl)-3-methyl-3-azabicyclo[3.1.0]hexane-1-carboxamide or (1S,5S)—N-(4-(1-(cyclopropylmethyl)-3-phenyl-1H-pyrazol-4-yl)-7-methoxypyrido[3,2-d]pyrimidin-6-yl)-3-methyl-3-azabicyclo[3.1.0]hexane-1-carboxamide]",0.7 nM,1.5 nM,0.7 nM
"COc1cc2ncnc(-c3cn(C4CC4)nc3-c3ccccc3)c2nc1NC(=O)[C@]12C[C@H]1CN(C)C2 (single isomer, unassigned) [Example 407, (1R,5R)—N-(4-(1-cyclopropyl-3-phenyl-1H-pyrazol-4-yl)-7-methoxypyrido[3,2-d]pyrimidin-6-yl)-3-methyl-3-azabicyclo[3.1.0]hexane-1-carboxamide or (1S,5S)—N-(4-(1-cyclopropyl-3-phenyl-1H-pyrazol-4-yl)-7-methoxypyrido[3,2-d]pyrimidin-6-yl)-3-methyl-3-azabicyclo[3.1.0]hexane-1-carboxamide]",1.4 nM,2.1 nM,0.7 nM
"CCOc1cc2ncnc(-c3cn(C)nc3-c3ccccc3)c2cc1CO [Example 99, (7-ethoxy-4-(1-methyl-3-phenyl-1H-pyrazol-4-yl)quinazolin-6-yl)methanol]",4.2 nM,2 nM,1.1 nM
"COc1cc2ncnc(-c3cn(C)nc3-c3ccccc3)c2cc1NC(=O)[C@@H]1CCN(C)C[C@H]1F [Example 284, (3S,4S)-3-fluoro-N-(7-methoxy-4-(1-methyl-3-phenyl-1H-pyrazol-4-yl)quinazolin-6-yl)-1-methylpiperidine-4-carboxamide]",18.7 nM,8.7 nM,4.7 nM
"COc1cc2ncnc(-c3c(-c4ccccc4)nn(C)c3C)c2cc1OC(=O)N1CCN(C)C[C@@H]1C [Example 482, 4-(1,5-dimethyl-3-phenyl-1H-pyrazol-4-yl)-7-methoxyquinazolin-6-yl(S)-2,4-dimethylpiperazine-1-carboxylate]",320 nM,207 nM,97 nM
"[2H]C([2H])([2H])N1CCN(C(=O)Oc2cc3c(-c4cn(C)nc4-c4ccccc4)ncnc3cc2OC)[C@@H](C)C1 [Example 93, 7-methoxy-4-(1-methyl-3-phenyl-1H-pyrazol-4-yl)quinazolin-6-yl(S)-2-methyl-4-(methyl-d3) piperazine-1-carboxylate]",4.3 nM,4.3 nM,2.5 nM
"COc1cc2ncnc(-c3cn(C)nc3-c3ccccc3)c2cc1NC(=O)c1ccccc1N1CCNCC1 [Example 227, N-(7-methoxy-4-(1-methyl-3-phenyl-1H-pyrazol-4-yl)quinazolin-6-yl)-2-(piperazin-1-yl)benzamide]",6.7 nM,15.2 nM,2.7 nM
"COc1cc2ncnc(-c3cn(C)nc3-c3ccccc3F)c2cc1NC(=O)[C@@]12C[C@@H]1CN(C)C2 (single isomer, unassigned) [Example 254, (1S,5S)—N-(4-(3-(2-fluorophenyl)-1-methyl-1H-pyrazol-4-yl)-7-methoxyquinazolin-6-yl)-3-methyl-3-azabicyclo[3.1.0]hexane-1-carboxamide or (1R,5R)—N-(4-(3-(2-fluorophenyl)-1-methyl-1H-pyrazol-4-yl)-7-methoxyquinazolin-6-yl)-3-methyl-3-azabicyclo[3.1.0]hexane-1-carboxamide]",2.5 nM,2.1 nM,0.8 nM
"COc1cc2ncnc(-c3cn(C)nc3-c3ccccc3)c2cc1O[C@@H]1CCN(C)C[C@H]1F [Example 1, 6-(((3R,4R)-3-fluoro-1-methylpiperidin-4-yl)oxy)-7-methoxy-4-(1-methyl-3-phenyl-1H-pyrazol-4-yl)quinazoline]",4.2 nM,4.2 nM,1.8 nM
"COc1cc2ncnc(-c3cn(CC(F)F)nc3-c3ccccc3)c2cc1[C@H](C)O (single isomer, unassigned) [Example 101, (S)-1-(4-(1-(2,2-difluoroethyl)-3-phenyl-1H-pyrazol-4-yl)-7-methoxyquinazolin-6-yl)ethan-1-ol or (R)-1-(4-(1-(2,2-difluoroethyl)-3-phenyl-1H-pyrazol-4-yl)-7-methoxyquinazolin-6-yl)ethan-1-ol]",5.7 nM,3.2 nM,1.9 nM
"CCC(=O)Nc1cc2c(-c3cn(C4COC4)nc3-c3ccccc3)ncnc2cc1OC [Example 249, N-(7-methoxy-4-(1-(oxetan-3-yl)-3-phenyl-1H-pyrazol-4-yl)quinazolin-6-yl)propionamide]",2.1 nM,2.2 nM,1.4 nM
"COc1cc2ncnc(-c3cn(C)nc3-c3ccccc3)c2cc1NC(=O)c1cnn(CC(F)(F)F)c1 [Example 203, N-(7-methoxy-4-(1-methyl-3-phenyl-1H-pyrazol-4-yl)quinazolin-6-yl)-1-(2,2,2-trifluoroethyl)-1H-pyrazole-4-carboxamide]",4.9 nM,2.1 nM,1.1 nM
"COc1cc2ncnc(-c3cn(C)nc3-c3ccccc3)c2cc1NC(=O)[C@H]1CCCN1C (single isomer, unassigned) [Example 242, (R)—N-(7-methoxy-4-(1-methyl-3-phenyl-1H-pyrazol-4-yl)quinazolin-6-yl)-1-methylpyrrolidine-2-carboxamide or (S)—N-(7-methoxy-4-(1-methyl-3-phenyl-1H-pyrazol-4-yl)quinazolin-6-yl)-1-methylpyrrolidine-2-carboxamide]",6.6 nM,7 nM,2.1 nM
